Assay results reported in the CheMixHub viscosity set.

Assay: xn = mol fraction of the nth substance listed

OCCCl + CCCO
viscosity [mPa·s], 101.33 kPa
Conditions | x1 = 0.099 | x1 = 0.1945 | x1 = 0.2948 | x1 = 0.3912 | x1 = 0.4924 | x1 = 0.5924 | x1 = 0.693 | x1 = 0.8071 | x1 = 0.8959
298.15 K | 1.761 | 1.802 | 1.842 | 1.92 | 2.028 | 2.148 | 2.281 | 2.428 | 2.6
303.15 K | 1.58 | 1.62 | 1.67 | 1.735 | 1.813 | 1.891 | 2.02 | 2.16 | 2.3
308.15 K | 1.4 | 1.44 | 1.48 | 1.542 | 1.606 | 1.678 | 1.76 | 1.88 | 2.001

[I-].[Rb+] + O
310.15 K, 101 kPa
Conditions | viscosity [mPa·s]
x1 = 0.000182 | 0.6811
x1 = 0.000907 | 0.69
x1 = 0.001816 | 0.7025
x1 = 0.002695 | 0.7138
x1 = 0.003679 | 0.7268
x1 = 0.005197 | 0.7469
x1 = 0.005988 | 0.7573

CCOC(=O)CCC(=O)OCC + CC(C)CO
Conditions | viscosity [mPa·s]
303.15 K, 100 kPa, x1 = 0.0999 | 2.135

CN1CCC[C@H]1c1cccnc1 + CC(O)CO
100 kPa
Conditions | viscosity [mPa·s]
293.15 K, x1 = 0.1 | 59.35
293.15 K, x1 = 0.3 | 44.85
298.15 K, x1 = 0.6005 | 14.25
303.15 K, x1 = 0.2009 | 28.85
308.15 K, x1 = 0.6005 | 8.935
313.15 K, x1 = 0.7 | 5.605
313.15 K, x1 = 0.7983 | 4.425
318.15 K, x1 = 0.3 | 11.45

CC(C)C#N + Clc1ccccc1Cl
viscosity [mPa·s], 101 kPa
Conditions | x2 = 0.1007 | x2 = 0.2025 | x2 = 0.2999 | x2 = 0.4004 | x2 = 0.4997 | x2 = 0.599 | x2 = 0.6994 | x2 = 0.7997 | x2 = 0.8989
303.15 K | 0.526 | 0.594 | 0.659 | 0.73 | 0.793 | 0.874 | 0.947 | 1.03 | 1.118
308.15 K | 0.489 | 0.551 | 0.608 | 0.667 | 0.732 | 0.798 | 0.87 | 0.945 | 1.02

CCCCCCCCCCC + CCCCCCCCCO
viscosity [mPa·s], 100 kPa
Conditions | x1 = 0.1008 | x1 = 0.2004 | x1 = 0.2999 | x1 = 0.3992 | x1 = 0.5014 | x1 = 0.5978 | x1 = 0.6993 | x1 = 0.7958 | x1 = 0.9
293.15 K | 8.362 | 6.114 | 4.688 | 3.479 | 2.709 | 2.208 | 1.803 | 1.531 | 1.326
298.15 K | 6.989 | 5.181 | 4.013 | 3.028 | 2.391 | 1.972 | 1.634 | 1.419 | 1.216
303.15 K | 5.885 | 4.422 | 3.464 | 2.653 | 2.124 | 1.777 | 1.529 | 1.296 | 1.117
308.15 K | 4.99 | 3.802 | 3.012 | 2.342 | 1.904 | 1.613 | 1.391 | 1.185 | 1.03
313.15 K | 4.264 | 3.291 | 2.636 | 2.084 | 1.718 | 1.5 | 1.271 | 1.09 | 0.956
318.15 K | 3.665 | 2.868 | 2.326 | 1.867 | 1.561 | 1.367 | 1.164 | 1.004 | 0.889
323.15 K | 3.17 | 2.503 | 2.066 | 1.685 | 1.461 | 1.249 | 1.07 | 0.928 | 0.826

CCOC(=O)CCC(=O)OCC + O=C1CCCO1
Conditions | viscosity [mPa·s]
298.15 K, 101 kPa, x2 = 0.95 | 1.745

NC=O + COCCO
101 kPa
Conditions | viscosity [mPa·s]
303 K, x1 = 0.1585 | 1.679
303 K, x1 = 0.4194 | 2.286
303 K, x1 = 0.5295 | 2.443
303 K, x1 = 0.6283 | 2.625
303 K, x1 = 0.717 | 2.859
303 K, x1 = 0.8711 | 2.837
303 K, x1 = 0.9381 | 2.945
303.15 K, x1 = 0.1785 | 1.795
313 K, x1 = 0.2971 | 1.632
313 K, x1 = 0.4194 | 1.841
313 K, x1 = 0.5295 | 1.958
313 K, x1 = 0.6283 | 2.067
313 K, x1 = 0.717 | 2.223
313 K, x1 = 0.7978 | 2.339
313 K, x1 = 0.8711 | 2.226
318.15 K, x1 = 0.5726 | 1.885

CCCC(O)CC (stereo not given) + CCO
298.15 K, 101.33 kPa
Conditions | viscosity [mPa·s]
x2 = 0.1028 | 4.236
x2 = 0.2116 | 3.975
x2 = 0.3124 | 3.658
x2 = 0.4135 | 3.218
x2 = 0.5018 | 2.88
x2 = 0.6027 | 2.459
x2 = 0.6987 | 2.054
x2 = 0.7994 | 1.673
x2 = 0.9044 | 1.363

CN1CCC[C@H]1c1cccnc1 + CC(=O)c1ccccc1
viscosity [mPa·s], 101 kPa
Conditions | x1 = 0.1332 | x1 = 0.2426 | x1 = 0.3782 | x1 = 0.4934 | x1 = 0.613 | x1 = 0.7431 | x1 = 0.8402
298.15 K | 1.872 | 2.198 | 2.537 | 2.947 | 3.238 | 3.627 | 3.736
323.15 K | 1.162 | 1.288 | 1.453 | 1.551 | 1.743 | 1.912 | 1.962

OCCCl + c1ccccc1
303.15 K, 101.33 kPa
Conditions | viscosity [mPa·s]
x2 = 0.3365 | 1.315
x2 = 0.4832 | 1.008
x2 = 0.6611 | 0.771
x2 = 0.849 | 0.613

C=CCO + O
Conditions | viscosity [mPa·s]
298.15 K, 101.33 kPa, x1 = 0.04829 | 1.349
298.15 K, 101.33 kPa, x1 = 0.09818 | 1.682
298.15 K, 101.33 kPa, x1 = 0.1362 | 1.789
298.15 K, 101.33 kPa, x1 = 0.146 | 1.846
298.15 K, 101.33 kPa, x1 = 0.2038 | 1.888
298.15 K, 101.33 kPa, x1 = 0.2149 | 1.895
298.15 K, 101.33 kPa, x1 = 0.2178 | 1.887
298.15 K, 101.33 kPa, x1 = 0.2213 | 1.892
298.15 K, 101.33 kPa, x1 = 0.2883 | 1.891
298.15 K, 101.33 kPa, x1 = 0.3655 | 1.796
298.15 K, 101.33 kPa, x1 = 0.4148 | 1.75
298.15 K, 101.33 kPa, x1 = 0.6057 | 1.537
303.15 K, 101 kPa, x1 = 0.1 | 1.415
303.15 K, 101 kPa, x1 = 0.199 | 1.604
303.15 K, 101 kPa, x1 = 0.299 | 1.603
303.15 K, 101 kPa, x1 = 0.4 | 1.531
303.15 K, 101 kPa, x1 = 0.5 | 1.44
303.15 K, 101 kPa, x1 = 0.6 | 1.369
303.15 K, 101 kPa, x1 = 0.696 | 1.297
303.15 K, 101 kPa, x1 = 0.795 | 1.233
303.15 K, 101 kPa, x1 = 0.896 | 1.176
313.15 K, 101 kPa, x1 = 0.1 | 1.082
313.15 K, 101 kPa, x1 = 0.199 | 1.23
313.15 K, 101 kPa, x1 = 0.299 | 1.238
313.15 K, 101 kPa, x1 = 0.4 | 1.202
313.15 K, 101 kPa, x1 = 0.5 | 1.143
313.15 K, 101 kPa, x1 = 0.6 | 1.096
313.15 K, 101 kPa, x1 = 0.696 | 1.045
313.15 K, 101 kPa, x1 = 0.795 | 1.002
313.15 K, 101 kPa, x1 = 0.896 | 0.9616
318.15 K, 101 kPa, x1 = 0.1 | 0.9613
318.15 K, 101 kPa, x1 = 0.199 | 1.09
318.15 K, 101 kPa, x1 = 0.299 | 1.103
318.15 K, 101 kPa, x1 = 0.4 | 1.072
318.15 K, 101 kPa, x1 = 0.5 | 1.031
318.15 K, 101 kPa, x1 = 0.6 | 0.991
318.15 K, 101 kPa, x1 = 0.696 | 0.9463
318.15 K, 101 kPa, x1 = 0.795 | 0.9099
318.15 K, 101 kPa, x1 = 0.896 | 0.876
323.15 K, 101 kPa, x1 = 0.1 | 0.8601
323.15 K, 101 kPa, x1 = 0.199 | 0.9754
323.15 K, 101 kPa, x1 = 0.299 | 0.9907
323.15 K, 101 kPa, x1 = 0.4 | 0.9622
323.15 K, 101 kPa, x1 = 0.5 | 0.9263
323.15 K, 101 kPa, x1 = 0.6 | 0.8973
323.15 K, 101 kPa, x1 = 0.696 | 0.8586
323.15 K, 101 kPa, x1 = 0.795 | 0.8284
323.15 K, 101 kPa, x1 = 0.896 | 0.8008

CCOC(=O)CCC(=O)OCC + CCCO
100 kPa
Conditions | viscosity [mPa·s]
293.15 K, x1 = 0.3998 | 1.875
313.15 K, x1 = 0.4999 | 1.325
318.15 K, x1 = 0.8997 | 1.545
323.15 K, x1 = 0.3998 | 1.065
